Some test systems named below: COLO 205 colon; DU-145 prostate; HCC-2998 colon; HL-60(TB) leukemia; LOX IMVI melanoma; PC-3 prostate; RPMI-8226 leukemia; SN12C renal; SR leukemia; UACC-257 melanoma.
Holding throughout (assay): growth of human tumour cells (NCI), 48 h

Structures are written as SMILES.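 Interpolation was linear, between the two tested concentrations surrounding the appropriate level; five concentrations were tested over 48 hours in 96-well plates. The concentration for 50% growth inhibition is given as GI50. TGI denotes the concentration required for complete inhibition of growth.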

In the case of `O=C1C=CC(=O)C1(Br)Br`, the TGI in the test on COLO 205 colon worked out at 24.1 µM; with DU-145 prostate, 39 µM; with HCC-2998 colon it was 31.2 µM; in the test on HL-60(TB) leukemia it was 49 µM; in the test on LOX IMVI melanoma it was 27.2 µM; in the test on PC-3 prostate, 33.1 µM. Besides, the TGI was found to be 20.1 µM with RPMI-8226 leukemia, 21.4 µM with SN12C renal, 29.5 µM in the test with SR leukemia and 30.7 µM in the test on UACC-257 melanoma.

Regarding `COc1cc2c3c(n(CCCN)c(=O)c2cc1OC)-c1ccc(F)cc1C3=O`, the GI50 with COLO 205 colon was 1.79 µM; in the test on DU-145 prostate it was 0.788 µM; with HCC-2998 colon it was 2.67 µM; in the test on HL-60(TB) leukemia it was 8.15 µM; with LOX IMVI melanoma it was 0.955 µM; in the test with PC-3 prostate it was 1.41 µM. In addition, the GI50 in the test on RPMI-8226 leukemia is 0.605 µM; in the test with SN12C renal, 4.29 µM; in the test with SR leukemia, 0.118 µM; with UACC-257 melanoma, 13.9 µM. Moreover, the TGI with COLO 205 colon is 5.4 µM; with DU-145 prostate it was 2.03 µM; in the test with HCC-2998 colon, 12.6 µM; in the test on HL-60(TB) leukemia, 24.9 µM; in the test on LOX IMVI melanoma, 4.68 µM; in the test with PC-3 prostate, 6.64 µM. The TGI in the test with RPMI-8226 leukemia turned out to be 2.71 µM; with SN12C renal it was 17.4 µM; in the test with SR leukemia, 1.14 µM; in the test on UACC-257 melanoma it was 31 µM.

Turning to `O=C(Oc1ccc([N+](=O)[O-])cc1)N1CCN(Cc2cccc(Oc3ccccc3)c2)CC1`, the GI50 was more than 83.5 µM in the test with COLO 205 colon; more than 100 µM with DU-145 prostate; more than 100 µM in the test on HCC-2998 colon; 24.2 µM in the test on HL-60(TB) leukemia; more than 82.6 µM with LOX IMVI melanoma; more than 69.6 µM in the test with PC-3 prostate. Further, the GI50 with RPMI-8226 leukemia was 13.1 µM; in the test on SN12C renal it was more than 100 µM; in the test with SR leukemia, 22.5 µM; in the test on UACC-257 melanoma, more than 76.9 µM. Besides, the TGI in the test with COLO 205 colon, in the test with DU-145 prostate, in the test on HCC-2998 colon, in the test with HL-60(TB) leukemia, in the test with LOX IMVI melanoma and with PC-3 prostate was more than 100 µM throughout. The TGI in the test with RPMI-8226 leukemia, in the test with SN12C renal, in the test with SR leukemia and in the test on UACC-257 melanoma was more than 100 µM each time.

Regarding `COc1cc(NN=C(c2ccc(O)cc2)c2ccc(O)cc2)c([N+](=O)[O-])cc1[N+](=O)[O-]`, the GI50 with COLO 205 colon is 11.2 µM; in the test on DU-145 prostate it was 12.8 µM; with HCC-2998 colon it was 14.8 µM; with HL-60(TB) leukemia, 22 µM; in the test with LOX IMVI melanoma, 3.76 µM; in the test with PC-3 prostate, 14.6 µM. Besides, the GI50 in the test with RPMI-8226 leukemia was 1.5 µM; in the test with SN12C renal, 11.2 µM; in the test on SR leukemia, 10.9 µM; with UACC-257 melanoma, 15.5 µM. Besides, the TGI in the test with COLO 205 colon is 23.2 µM; with DU-145 prostate, 50.8 µM; with HCC-2998 colon it was 29.8 µM; in the test on HL-60(TB) leukemia it was more than 100 µM; with LOX IMVI melanoma, 18.6 µM; in the test with PC-3 prostate it was more than 100 µM. Further, the TGI is more than 100 µM in the test on RPMI-8226 leukemia, 23.3 µM in the test on SN12C renal, more than 100 µM in the test with SR leukemia and 29.3 µM in the test on UACC-257 melanoma.

As for `Nc1nc2c(c3ncccc13)C(c1cccc(Cl)c1)Cc1ncccc1-2` (stereo not given), the GI50 in the test with COLO 205 colon was 1.53 µM; with DU-145 prostate, 2.77 µM; in the test on HCC-2998 colon, 2.77 µM; in the test with HL-60(TB) leukemia it was 1.21 µM; in the test with LOX IMVI melanoma, 5.12 µM; with PC-3 prostate it was 2.6 µM. Also, the GI50 was 4.19 µM with RPMI-8226 leukemia, 5.93 µM with SN12C renal, 0.469 µM in the test with SR leukemia and 15 µM with UACC-257 melanoma. For the same molecule, the TGI worked out at 3.94 µM with COLO 205 colon; 24.9 µM in the test with DU-145 prostate; 15.1 µM with HCC-2998 colon; 10.3 µM with HL-60(TB) leukemia; 19.5 µM with LOX IMVI melanoma; 17.6 µM with PC-3 prostate. Besides, the TGI in the test on RPMI-8226 leukemia was 41.1 µM; in the test with SN12C renal, 44.5 µM; with SR leukemia, 14.3 µM; with UACC-257 melanoma, 44.5 µM.

Regarding `N#CC1C(=N)Cc2ccccc2-c2ccccc21` (stereo not given), the GI50 in the test on COLO 205 colon is 3.82 µM; in the test with DU-145 prostate, 6.92 µM; with HCC-2998 colon it was 9.96 µM; in the test on HL-60(TB) leukemia it was 3.23 µM; in the test on LOX IMVI melanoma, 6.26 µM; in the test with PC-3 prostate it was 12.7 µM. Also, the GI50 in the test with RPMI-8226 leukemia was 9.03 µM; with SN12C renal, 5.55 µM; with SR leukemia it was 3.31 µM; in the test with UACC-257 melanoma it was 8.33 µM. In addition, the TGI was 20.9 µM with COLO 205 colon; 49.7 µM in the test with DU-145 prostate; 26 µM in the test on HCC-2998 colon; 16.6 µM in the test with HL-60(TB) leukemia; 33.5 µM in the test with LOX IMVI melanoma; more than 100 µM in the test on PC-3 prostate. The TGI in the test on RPMI-8226 leukemia is more than 100 µM; in the test with SN12C renal, 38.8 µM; with SR leukemia it was 20.7 µM; in the test on UACC-257 melanoma, 69.1 µM.

Consider `Nc1ccn([C@H]2C[C@@H](O)[C@@H](CO)S2)c(=O)n1`, for which the GI50 in the test on COLO 205 colon was more than 89.8 µM; in the test with DU-145 prostate it was more than 100 µM; in the test with HCC-2998 colon, more than 100 µM; with HL-60(TB) leukemia, 14.5 µM; in the test with LOX IMVI melanoma it was more than 100 µM; in the test with PC-3 prostate, more than 100 µM. The GI50 with RPMI-8226 leukemia was more than 100 µM; with SN12C renal, more than 44.7 µM; in the test on SR leukemia, more than 100 µM; in the test with UACC-257 melanoma, more than 100 µM. The TGI in the test with COLO 205 colon, in the test with DU-145 prostate, in the test with HCC-2998 colon, with HL-60(TB) leukemia, in the test on LOX IMVI melanoma and in the test with PC-3 prostate was more than 100 µM in each case. Also, the TGI in the test on RPMI-8226 leukemia, in the test with SN12C renal, in the test with SR leukemia and with UACC-257 melanoma was more than 100 µM each time.

On to `CCOC(OCC)C(CC)[Se]c1ccccc1[N+](=O)[O-]` (stereo not given), for which the TGI is 8.92 µM with COLO 205 colon; more than 100 µM in the test with DU-145 prostate; 14.3 µM in the test with HCC-2998 colon; 3.22 µM with HL-60(TB) leukemia; 37.8 µM with LOX IMVI melanoma; more than 100 µM in the test on PC-3 prostate. In addition, the TGI with RPMI-8226 leukemia is 23 µM; in the test with SN12C renal, more than 61.2 µM; in the test on SR leukemia it was more than 40.1 µM; in the test with UACC-257 melanoma it was more than 94.6 µM.

These data come from PubChem BioAssay (NCI).
